Experimental data from US10035778B2, “Meta-azacyclic amino benzoic acid derivatives as pan integrin antagonists” (Saint Louis University, priority 2015, dated 2018).

Assays:
Format in all cases: binding
[1] = target: Recombinant human integrin αvβ6 (Homo sapiens (Human), UniProt P06756+P18564); experiment: Solid Phase Receptor Assay (SPRA) for αvβ6 function; settings: LAP-coated plate
Method: 5. Solid Phase Receptor Assay (SPRA) for αvβ6 Function
Recombinant human LAP (R&D Systems, 246-LP) diluted to 0.25 μg/mL in TBS+ buffer (25 mM Tris pH 7.4, 137 mM NaCl, 2.7 mM KCl, 1 mM CaCl2, 1 mM MgCl2, 1 mM MnCl2) was added to wells (50 μL/well) of a 96-well half-well transparent microtiter plate (Greiner 675061) and incubated overnight at 4° C. Wells were washed 3 times with 150 μL TBS+, and 150 μL of blocking buffer (TBS+ with 1% bovine serum albumin, Sigma A7906) were added. The plate was incubated for 1 hr at 37° C., and then washed 3× with TBS+ buffer. Recombinant human integrin αvβ6 (R&D Systems, 3817-AV) was diluted to 0.1 μg/mL in TBS+/0.1% bovine serum albumin. Compounds were diluted 1:100 into the integrin solution and then 50 μL added to empty wells of the washed LAP-coated plate according to a standard template with each sample repeated in triplicate. After incubation for two hours at room temperature, the plate was washed 3× with 150 μL of TBS+ buffer. To each well, 50 μL of biotinylated anti-αv antibody (R&D Systems, BAF1219) at 0.5 μg/mL in TBS+/0.1% BSA were added and the plate was covered and incubated for 1 hr at room temperature. After washing the plate 3× with 150 μL of TBS+ buffer, 50 μL of streptavidin-conjugated horseradish peroxidase (R&D Systems, DY998) diluted in TBS+ blocking buffer were added to the wells and the plate incubated for 20 min at room temperature. The plate was washed 3× with TBS+ buffer followed by 50 μL of TMB substrate (Sigma T4444) added to each well and the plate incubated for 20 min at room temperature. Plates were read by colorimetric detection at 650 nm wavelength using a Tecan Safire II plate reader. Concentration-response curves were constructed by non-linear regression (best fit) analysis, and IC50 values were calculated for each compound.

[2] = target: Recombinant human integrin α5β1 (Homo sapiens (Human), UniProt P05556+P08648); experiment: Solid Phase Receptor Assay (SPRA) for α5β1 function; settings: fibronectin-coated plate
Method: 1. Solid Phase Receptor Assay (SPRA) for α5β1 Function
Purified human fibronectin (R&D Systems, 1918-FN) diluted to 2 μg/mL in TBS+ buffer (25 mM Tris pH 7.4, 137 mM NaCl, 2.7 mM KCl, 1 mM CaCl2, 1 mM MgCl2, 1 mM MnCl2) was added to wells (50 μL/well) of a 96-well half-well transparent microtiter plate (Greiner 675061) and incubated overnight at 4° C. Wells were washed 3 times with 150 μL TBS+ and 150 μL of blocking buffer (TBS+ with 1% bovine serum albumin, Sigma A7906) were added. The plate was incubated for 1 hr at 37° C. and then washed 3× with TBS+ buffer. Recombinant human integrin α5β1 (R&D Systems, 3230-A5) was diluted to 0.1 μg/mL in TBS+/0.1% bovine serum albumin. Compounds were diluted 1:100 into the integrin solution and then 50 μL added to empty wells of the washed fibronectin-coated plate according to a standard template with each sample repeated in triplicate. After incubation for two hours at room temperature, the plate was washed 3× with 150 μL of TBS+ buffer. To each well, 50 μl of biotinylated anti-α5 antibody (R&D Systems, BAF1864) at 0.5 μg/mL in TBS+/0.1% BSA were added and the plate covered and incubated for 1 hr at room temperature. After washing the plate 3× with 150 μL of TBS+ buffer, 50 μL of streptavidin-conjugated horseradish peroxidase (R&D Systems, DY998) diluted in TBS+ blocking buffer were added to the wells and the plate incubated for 20 min at room temperature. The plate was washed 3× with TBS+ buffer followed by 50 μL of room temperature TMB substrate (Sigma, T444) added to each well and the plate incubated for 20 min at room temperature. Plates were read by colorimetric detection at 650 nm wavelength using a Tecan Safire II plate reader. Concentration-response curves were constructed by non-linear regression (best fit) analysis, and IC50 values were calculated for each compound.

[3] = target: Recombinant human integrin αvβ3 (Homo sapiens (Human), UniProt P05106+P06756); experiment: Solid Phase Receptor Assay (SPRA) for αvβ3 function; settings: vitronectin-coated plate
Method: 3. Solid Phase Receptor Assay (SPRA) for αvβ3 Function
Recombinant human vitronectin (R& D Systems, 2308-VN) diluted to 1 μg/mL in TBS+ buffer (25 mM Tris pH 7.4, 137 mM NaCl, 2.7 mM KCl, 1 mM CaCl2, 1 mM MgCl2, 1 mM MnCl2) was added to wells (50 μL/well) of a 96-well half-well transparent microtiter plate (Greiner 675061) and incubated overnight at 4° C. Wells were washed 3 times with 150 μL TBS+ and 150 μL of blocking buffer (TBS+ with 1% bovine serum albumin, Sigma A7906) were added. The plate was incubated for 1 hr at 37° C. and then washed 3× with TBS+ buffer. Recombinant human integrin αvβ3 (R&D Systems, 3050-AV) was diluted to 1 μg/mL in TBS+/0.1% bovine serum albumin. Compounds were diluted 1:100 into the integrin solution and then 50 μL added to empty wells of the washed vitronectin-coated plate according to a standard template with each sample repeated in triplicate. After incubation for two hours at room temperature, the plate was washed 3× with 150 μL of TBS+ buffer. To each well, 50 μL of biotinylated anti-αv antibody (R&D Systems, BAF1219) at 0.5 μg/mL in TBS+/0.1% BSA were added and the plate covered and incubated for 1 hr at room temperature. After washing the plate 3× with 150 μL of TBS+ buffer, 50 μL of streptavidin-conjugated horseradish peroxidase (R&D Systems, DY998) diluted in TBS+ blocking buffer were added to the wells and the plate incubated for 20 min at room temperature. The plate was washed 3× with TBS+ buffer followed by 50 μL of TMB substrate (Sigma, T4444) added to each well and the plate was incubated for 20 min at room temperature. Plates were read by colorimetric detection at 650 nm wavelength using a Tecan Safire II plate reader. Concentration-response curves were constructed by non-linear regression (best fit) analysis, and IC50 values were calculated for each compound.

Sequence of Recombinant human integrin αvβ3 (P06756 31-992): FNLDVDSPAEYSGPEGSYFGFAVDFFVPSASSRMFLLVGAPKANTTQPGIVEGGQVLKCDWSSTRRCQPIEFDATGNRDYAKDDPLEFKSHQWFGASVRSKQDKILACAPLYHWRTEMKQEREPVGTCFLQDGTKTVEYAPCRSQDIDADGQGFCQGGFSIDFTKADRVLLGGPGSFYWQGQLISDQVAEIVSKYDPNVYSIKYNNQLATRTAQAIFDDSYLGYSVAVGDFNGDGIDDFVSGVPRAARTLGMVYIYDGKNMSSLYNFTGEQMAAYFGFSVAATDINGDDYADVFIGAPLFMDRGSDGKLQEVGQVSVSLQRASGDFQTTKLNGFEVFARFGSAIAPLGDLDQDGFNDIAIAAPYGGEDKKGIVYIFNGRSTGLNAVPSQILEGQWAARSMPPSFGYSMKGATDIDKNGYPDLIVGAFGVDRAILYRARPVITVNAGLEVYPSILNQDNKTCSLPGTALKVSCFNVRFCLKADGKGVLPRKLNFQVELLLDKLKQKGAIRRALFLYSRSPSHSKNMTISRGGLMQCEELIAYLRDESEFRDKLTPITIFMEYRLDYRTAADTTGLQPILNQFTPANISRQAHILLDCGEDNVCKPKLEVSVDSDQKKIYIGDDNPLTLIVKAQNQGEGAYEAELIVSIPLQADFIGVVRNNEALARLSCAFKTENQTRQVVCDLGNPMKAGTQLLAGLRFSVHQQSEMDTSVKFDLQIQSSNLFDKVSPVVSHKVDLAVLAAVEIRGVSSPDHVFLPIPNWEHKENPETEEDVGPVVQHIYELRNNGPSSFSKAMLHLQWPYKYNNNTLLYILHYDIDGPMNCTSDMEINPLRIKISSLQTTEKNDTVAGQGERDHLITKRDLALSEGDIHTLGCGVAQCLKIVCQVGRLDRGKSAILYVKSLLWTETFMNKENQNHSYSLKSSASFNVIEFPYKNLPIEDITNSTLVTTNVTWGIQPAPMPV
Sequence of Recombinant human integrin αvβ3 (P05106 27-718): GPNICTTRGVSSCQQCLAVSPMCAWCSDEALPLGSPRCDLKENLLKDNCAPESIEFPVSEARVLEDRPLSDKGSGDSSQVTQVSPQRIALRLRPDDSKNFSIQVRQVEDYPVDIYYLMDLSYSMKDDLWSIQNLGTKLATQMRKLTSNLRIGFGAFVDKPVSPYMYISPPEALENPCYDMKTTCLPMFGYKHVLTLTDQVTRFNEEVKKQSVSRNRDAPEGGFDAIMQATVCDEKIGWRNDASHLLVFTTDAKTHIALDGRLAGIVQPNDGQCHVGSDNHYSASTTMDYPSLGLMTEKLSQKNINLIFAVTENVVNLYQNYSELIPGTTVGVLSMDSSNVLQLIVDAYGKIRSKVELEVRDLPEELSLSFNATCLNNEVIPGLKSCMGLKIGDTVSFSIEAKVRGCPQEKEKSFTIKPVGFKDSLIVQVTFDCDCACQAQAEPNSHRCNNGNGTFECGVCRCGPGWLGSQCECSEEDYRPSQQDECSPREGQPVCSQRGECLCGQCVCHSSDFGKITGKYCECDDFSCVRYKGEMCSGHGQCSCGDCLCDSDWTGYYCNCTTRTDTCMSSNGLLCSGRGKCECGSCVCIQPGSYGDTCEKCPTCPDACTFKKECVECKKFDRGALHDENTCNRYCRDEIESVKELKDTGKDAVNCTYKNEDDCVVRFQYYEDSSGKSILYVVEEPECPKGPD
Sequence of Recombinant human integrin αvβ6 (P06756 31-992): as the sequence (P06756 31-992) above
Sequence of Recombinant human integrin αvβ6 (P18564 22-707): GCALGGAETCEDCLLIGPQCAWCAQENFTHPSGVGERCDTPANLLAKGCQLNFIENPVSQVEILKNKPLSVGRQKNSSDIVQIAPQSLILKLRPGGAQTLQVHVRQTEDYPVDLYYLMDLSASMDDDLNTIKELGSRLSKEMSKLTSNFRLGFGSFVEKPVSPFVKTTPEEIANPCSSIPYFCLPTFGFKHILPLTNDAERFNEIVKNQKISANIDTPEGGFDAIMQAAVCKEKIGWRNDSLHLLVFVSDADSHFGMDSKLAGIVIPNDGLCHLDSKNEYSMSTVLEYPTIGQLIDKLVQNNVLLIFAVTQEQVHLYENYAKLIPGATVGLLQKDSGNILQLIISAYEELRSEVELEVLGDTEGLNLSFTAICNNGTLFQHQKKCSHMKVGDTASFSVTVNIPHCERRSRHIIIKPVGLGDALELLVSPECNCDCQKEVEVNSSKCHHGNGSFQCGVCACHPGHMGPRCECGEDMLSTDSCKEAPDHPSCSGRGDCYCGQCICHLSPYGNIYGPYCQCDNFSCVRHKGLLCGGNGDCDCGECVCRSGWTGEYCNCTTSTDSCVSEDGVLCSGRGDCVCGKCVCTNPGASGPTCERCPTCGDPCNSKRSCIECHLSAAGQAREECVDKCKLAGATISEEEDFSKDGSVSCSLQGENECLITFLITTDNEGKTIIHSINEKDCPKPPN
Sequence of Recombinant human integrin α5β1 (P08648 42-995): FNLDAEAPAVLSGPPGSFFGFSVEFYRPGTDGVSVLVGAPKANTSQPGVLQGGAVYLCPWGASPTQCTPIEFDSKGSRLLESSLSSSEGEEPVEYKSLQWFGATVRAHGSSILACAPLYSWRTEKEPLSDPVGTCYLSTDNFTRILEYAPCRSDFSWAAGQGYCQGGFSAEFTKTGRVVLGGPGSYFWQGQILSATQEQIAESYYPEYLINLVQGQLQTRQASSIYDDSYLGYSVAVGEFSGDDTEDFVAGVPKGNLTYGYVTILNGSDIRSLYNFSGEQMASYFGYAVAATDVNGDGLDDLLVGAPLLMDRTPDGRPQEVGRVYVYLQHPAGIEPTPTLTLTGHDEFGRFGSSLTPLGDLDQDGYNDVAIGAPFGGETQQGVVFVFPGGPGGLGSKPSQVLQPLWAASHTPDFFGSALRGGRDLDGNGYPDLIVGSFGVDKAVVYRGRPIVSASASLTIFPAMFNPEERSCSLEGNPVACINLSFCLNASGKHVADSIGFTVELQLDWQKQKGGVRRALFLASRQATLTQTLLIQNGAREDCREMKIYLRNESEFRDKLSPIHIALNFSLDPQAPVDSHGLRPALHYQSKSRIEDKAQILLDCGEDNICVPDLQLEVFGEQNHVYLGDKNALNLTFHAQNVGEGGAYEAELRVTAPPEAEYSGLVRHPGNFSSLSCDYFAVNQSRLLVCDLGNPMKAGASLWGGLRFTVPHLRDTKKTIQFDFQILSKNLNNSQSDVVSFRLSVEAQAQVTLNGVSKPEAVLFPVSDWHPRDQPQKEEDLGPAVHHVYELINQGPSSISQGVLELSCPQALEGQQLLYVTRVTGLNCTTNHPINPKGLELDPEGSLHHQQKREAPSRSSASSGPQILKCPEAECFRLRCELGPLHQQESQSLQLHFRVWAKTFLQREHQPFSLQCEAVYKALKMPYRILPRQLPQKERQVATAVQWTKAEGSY
Sequence of Recombinant human integrin α5β1 (P05556 21-728): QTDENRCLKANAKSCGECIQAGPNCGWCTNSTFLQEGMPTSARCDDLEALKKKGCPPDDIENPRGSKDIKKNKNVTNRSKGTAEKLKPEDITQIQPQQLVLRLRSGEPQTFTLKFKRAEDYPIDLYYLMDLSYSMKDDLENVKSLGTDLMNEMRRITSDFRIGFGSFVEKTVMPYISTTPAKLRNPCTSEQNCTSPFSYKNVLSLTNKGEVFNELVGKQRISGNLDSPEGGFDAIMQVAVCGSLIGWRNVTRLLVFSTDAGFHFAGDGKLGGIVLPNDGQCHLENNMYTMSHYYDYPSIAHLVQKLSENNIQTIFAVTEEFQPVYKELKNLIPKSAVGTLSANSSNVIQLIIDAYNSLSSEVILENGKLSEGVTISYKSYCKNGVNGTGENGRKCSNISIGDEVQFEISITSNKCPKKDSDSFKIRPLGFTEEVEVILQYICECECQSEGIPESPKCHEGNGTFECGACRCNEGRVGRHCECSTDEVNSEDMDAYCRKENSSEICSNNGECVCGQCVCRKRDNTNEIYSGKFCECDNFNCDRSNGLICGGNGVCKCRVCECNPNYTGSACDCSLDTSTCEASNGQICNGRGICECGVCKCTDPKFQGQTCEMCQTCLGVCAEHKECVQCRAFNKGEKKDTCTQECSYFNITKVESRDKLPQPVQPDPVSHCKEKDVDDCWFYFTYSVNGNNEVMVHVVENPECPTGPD

| IC50 [1] [nM] | IC50 [2] [nM] | IC50 [3] [nM] | SMILES |
| --- | --- | --- | --- |
| 0.4 | 1 ± 0.5 | 2.3 ± 0.1 | O=C(O)C[C@H](NC(=O)CNC(=O)c1cc(O)cc(NC2=NCC(O)CN2)c1)c1cc(Br)cc(Br)c1 (stereo partly drawn) [Example 1, (3S)-3-(3,5-dibromophenyl)-3-(2-(3-hydroxy-5-((5-hydroxy-1,4,5,6-tetrahydropyrimidin-2-yl)amino)benzamido)acetamido)propanoic acid] |
| 0.3 | 0.8 | 2.7 ± 0.4 | O=C(O)C[C@H](NC(=O)CNC(=O)c1cc(O)cc(NC2=NCC(O)CN2)c1)c1cc(Br)cc(C(F)(F)F)c1 (stereo partly drawn) [Example 2, (3S)-3-(3-bromo-5-(trifluoromethyl)phenyl)-3-(2-(3-hydroxy-5-((5-hydroxy-1,4,5,6-tetrahydropyrimidin-2-yl)amino)benzamido)acetamido)propanoic acid] |
| 0.4 | 0.5 | 1 | O=C(O)C[C@H](NC(=O)CNC(=O)c1cc(O)cc(NC2=NCC(O)CN2)c1)c1cc(Cl)cc(C(F)F)c1 (stereo partly drawn) [Example 3, (3S)-3-[3-chloro-5-(difluoromethyl)phenyl)-3-(2-(3-hydroxy-5-((5-hydroxy-1,4,5,6-tetrahydropyrimidin-2-yl)amino)benzamido)acetamido]propanoic acid] |
| 0.4 | 0.7 | 3 | O=C(O)C[C@H](NC(=O)CNC(=O)c1cc(O)cc(NC2=NCC(O)CN2)c1)c1cc(Br)cc(C(F)F)c1 (stereo partly drawn) [Example 4, (3S)-3-[3-bromo-5-(difluoromethyl)phenyl)-3-(2-(3-hydroxy-5-((5-hydroxy-1,4,5,6-tetrahydropyrimidin-2-yl)amino)benzamido)acetamido]propanoic acid] |
| 0.5 | 0.8 | 3 | O=C(O)C[C@H](NC(=O)CNC(=O)c1cc(O)cc(NC2=NCC(O)CN2)c1)c1cc(Cl)cc(C(F)(F)F)c1 (stereo partly drawn) [Example 5, (3S)-3-[3-chloro-5-(trifluoromethyl)phenyl)-3-(2-(3-hydroxy-5-((5-hydroxy-1,4,5,6-tetrahydropyrimidin-2-yl)amino)benzamido)acetamido]propanoic acid] |
| 0.4 | 0.6 | 1 | O=C(O)C[C@H](NC(=O)CNC(=O)c1cc(O)cc(NC2=NCC(O)CN2)c1)c1cc(Cl)cc(Br)c1 (stereo partly drawn) [Example 6, (3S)-3-[3-bromo-5-chloro-phenyl)-3-(2-(3-hydroxy-5-((5-hydroxy-1,4,5,6-tetrahydropyrimidin-2-yl)amino)benzamido)acetamido]propanoic acid] |
| 0.3 | 0.7 | 3 | O=C(O)C[C@H](NC(=O)CNC(=O)c1cncc(NC2=NCC(O)CN2)c1)c1cc(Cl)cc(C(F)(F)F)c1 (stereo partly drawn) [Example 7] |
| 0.3 | 0.3 | 3 | O=C(O)C[C@H](NC(=O)CNC(=O)c1cncc(NC2=NCC(O)CN2)c1)c1cc(Br)cc(C(F)(F)F)c1 (stereo partly drawn) [Example 9, (3S)-3-[3-bromo-5-(trifluoromethyl)phenyl]-3-[[2-[[5-[(5-hydroxy-1,4,5,6-tetrahydropyrimidin-2-yl)amino]pyridine-3-carbonyl]amino]acetyl]amino]propanoic acid] |
| 0.3 ± 0.1 | 1 ± 0.4 | 4 | O=C(O)C[C@H](NC(=O)CNC(=O)c1cc(O)cc(NC2=NCC(O)CN2)c1)c1cc(C(F)(F)F)cc(C(F)(F)F)c1 (stereo partly drawn) [Example 10, (3S)-3-[3,5-bis(trifluoromethyl)phenyl)-3-(2-(3-hydroxy-5-((5-hydroxy-1,4,5,6-tetrahydropyrimidin-2-yl)amino)benzamido)acetamido]propanoic acid] |

| SMILES | IC50 [1] [nM] | IC50 [2] [nM] | IC50 [3] [nM] |
| --- | --- | --- | --- |
| O=C(O)C[C@H](NC(=O)CNC(=O)c1cncc(NC2=NCC(O)CN2)c1)c1cc(Cl)cc(Br)c1 (stereo partly drawn) [Example 8, (3S)-3-(3-bromo-5-chloro-phenyl)-3-[[2-[[5-[(5-hydroxy-1,4,5,6-tetrahydropyrimidin-2-yl)amino]pyridine-3-carbonyl]amino]acetyl]amino]propanoic acid] | 0.4 | 0.6 | 4 |
